From paper PMC9234961 (Journal of Medicinal Chemistry, 2022)
In brackets after ≈: the same amount, converted by molar mass. Several values for one entry are separate records, joined by “and”; a condition that tells them apart may be missing. Equal values may be shown once. Read-outs that look alike come from different tables or passages of the source.

Assays:
NMR solubility assay = format: physicochemical; conditions: kinetic solubility by NMR in HEPES buffer at pH 8, 4% DMSO; read-out: Aq. Sol.
Method: 4. Supplementary experimental: physicochemical assays
0.5 mM TCEP, 10% D2O) was pipetted into the same well and mixed by up-down pipetting 3 times to create […]
It was then separated by centrifugation (1000 rpm
The plate was then sealed and incubated at room temperature for 20 hours, […]
165 µL of the supernatant was transferred to a 3 mm NMR tube (Bruker, Part No. Z112272) using liquid handler SamplePro Tube SJ S (Bruker). The concentration of the solubilized compound in solubility sample is measured by quantitative 1H-NMR using a single external standard (200 µM caffeine (Sigma, C1778) in PBS (pH 7.4) with 1% DMSO-d6).
The detail of the NMR method is as following: NMR data was collected on a Bruker Avance Neo 600 spectrometer equipped with a 5 mm TCI-CryoProbe. The 1H spectrum was referenced to the internal deuterated solvent. The operating frequency for 1H was 600 MHz. All NMR data were acquired at the […]
1H-NMR spectrum was acquired using a Bruker standard 1D lc1pngppsf2 pulse sequence with 32 scans.
The sweep width was 6.2 ppm with O1P set to 8.8 ppm, and the FID contained 16k time-domain data points. Relaxation delay was set to 20 sec. Water signal was suppressed. […]

[1] = logD7.4 assay (Chrom log D method); format: physicochemical; conditions: pH 7.4, read-out: Measured logD7.4
Method: Calibration, validation and in-house compounds were prepared at 1mM in 10% DMSO / 90% Trizma solution (100mM Trizma in 75/25 methanol/water). 3 µL standard injections (with needle wash) of all calibration, validation and in-house samples were made onto a Phenomenex Luna C8 column (3µm, 100 x 4.6 mm, 100A, Phenomenex, Torrence, USA). Chromatographic separation at 30°C was carried out using […]
2 mL/min. The gradient was held at 0:100 water:organic for 0.8 minutes, then returned to the starting conditions of 95:5 water:organic for 0.2 minutes. The column was re-equilibrated for 5 minutes at the […]

human BCL6 BTB domain [2] = biological target: T1, human BCL6 BTB domain (Homo sapiens, UniProt P41182); conditions: for BCL6 TR-FRET pIC50 mean: mean of replicates
[3] = Microsomal clearance assay (MLM); format: in vitro ADME; conditions: female, CD1, pH 7.4; mouse liver microsomes, 1 μM compound
Method: 6. Supplementary experimental: in vitro DMPK assays
6.1 Microsomal clearance assay
Microsomal clearance was determined in female CD1 mice, female Sprague–Dawley rats, and mixed gender human liver microsomes obtained from BioIVT (Peterborough, U.K.) following incubation of 1 μM compound at 37 °C in 0.5 mg/mL microsomal protein, 3 mmol/L MgCl2, 1 mmol/L NADPH, 2.5 mmol/L and 10 mmol/L phosphate buffer (pH 7.4) (all purchased from Sigma-Aldrich, Gillingham, U.K). Reactions were started by addition of the cofactors following 10 min preincubation of microsomes with test compound and were terminated at −1, 0, 5, 10, 15, and 30 min with three volumes of ice-cold methanol containing internal standard. Samples were centrifuged at 2800g for 30 min at 4 °C and the supernatants analyzed.
Control incubations were prepared as above with omission of cofactors. Compound measurements were […]
separation with a 3 min gradient of 0.1% formic acid in methanol on a Kinetex C18, 50 × 2.1 mm 2.6 μm UPLC column (Phenomenex, Macclesfield, UK). […]

[4] = biological target: endogenous BCL6 in OCI-Ly1 cells (Homo sapiens, UniProt P41182); test: cell-based; conditions: for degradation of BCL6 (in words): OCI-Ly1 MSD assay; for MSD degrader assay [OCI-Ly1] Dmax: mean maximal degradation of BCL6; for MSD degrader assay [OCI-LY1] pDC50 mean: mean of replicates
human BCL6 BTB domain [5] = biological target: T1, human BCL6 BTB domain; test: biochemical
Method: Assays were performed in a 384-well black Proxiplate (Perkin Elmer) containing 1 nM Trx-6xHis-BCL6 (in
anti-6xHis-Terbium cryptate (CisBio Bioassays, France), in assay buffer (25 mM Hepes pH8, 100 mM NaCl,
0.05% Tween20, 0.5 mM TCEP, 0.05% bovine serum albumin). Test compounds in DMSO or DMSO alone
were added to the wells using an ECHO550 acoustic dispenser (Labcyte Inc) to give the appropriate test
concentration in 0.7% v/v DMSO final. After 2 hours incubation at room temperature the plate was read
The % inhibition at each concentration was calculated by normalising FRET ratio to the
appropriate high (DMSO with all reagents) and low (DMSO without BCL6) controls. IC50 values were
determined using GraphPad Prism 6.0 or Dotmatics (Bishops Stortford, UK) software by fitting the
normalised data to a sigmoidal four-parameter logistic fit equation.

[6] = reversed-phase HPLC on Phenomenex Luna C8 column
[7] = read-out: BCL6 TR-FRET IC50, geometric mean, BCOR-AF633 peptide, 2 h incubation
[8] = OCI-Ly1, read-out: MSD degrader assay [OCI-LY1] Dmax individual replicates, single replicate values
[9] = OCI-Ly1, read-out: MSD degrader assay [OCI-Ly1] Dmax, mean maximal degradation of BCL6, OCI-Ly1 cells, 2 h
[10] = read-out: MSD degrader assay [OCI-LY1] DC50 individual replicates, single replicate values
[11] = read-out: MSD degrader assay [OCI-Ly1] DC50, geometric mean, OCI-Ly1 cells, 2 h incubation
[12] = BCL6 TR-FRET IC50 individual replicates, single replicate values

Compound | solubility kinetic at 20 h (NMR solubility assay) | chromatographic logD [1, 6] | BCL6 TR-FRET pIC50 mean (human BCL6 BTB domain [2]) | IC50 (human BCL6 BTB domain [2]; [7]) | microsomal CLint at 0.5 h, 1 µM [3] | Dmax [4, 8] | Dmax [4, 9] | degradation of BCL6 (in words) [4] | MSD degrader assay [OCI-Ly1] Dmax ([4]; OCI-Ly1 cells, 2 h) | DC50 [4, 10] | DC50 [4, 11] | IC50 (human BCL6 BTB domain [5]; [12]) | chromatographic logD [1] | IC50 (human BCL6 BTB domain [2]; read-out: BCL6 TR-FRET IC50 individual replicates, single replicate values) | IC50 (human BCL6 BTB domain [5]; BCL6 TR-FRET pIC50 mean, mean of replicates) | MSD degrader assay [OCI-LY1] pDC50 mean [4] | MSD degrader assay [OCI-LY1] Dmax individual replicates ([4]; single replicate values)
C[C@@H]1C[C@H](N(C)C)CN(c2ncc(Cl)c(Nc3ccc4c(c3)c3c(c(=O)n4C)OCC(F)(F)[C@H](C4CC4)N3)n2)C1 [11b, (S)-10-((5-Chloro-2-((3S,5R)-3-(dimethylamino)-5-methylpiperidin-1-yl)pyrimidin-4-yl)amino)-2-cyclopropyl-3,3-difluoro-7-methyl-1,2,3,4-tetrahydro-[1,4]oxazepino[2,3-c]quinolin-6(7H)-one] | 58 µM (≈ 33.3 µg/mL) | 3.3 | 8.4399 | 3.6 nM | 681 µL/min/mg | < 30% | < 30% | nondegrading isomer | > 30% | > 2000 nM | > 2000 nM | 3.3 nM and 3 nM and 4.8 nM |  |  |  |  | 
Cn1c(=O)c2c(c3cc(Nc4nc(N5CCC[C@@H](O)C5)ncc4Cl)ccc31)N[C@@H](C1CC1)C(F)(F)CO2 [14a, (S)-10-((5-chloro-2-((R)-3-hydroxypiperidin-1-yl)pyrimidin-4-yl)amino)-2-cyclopropyl-3,3-difluoro-7-methyl-1,2,3,4-tetrahydro-[1,4]oxazepino[2,3-c]quinolin-6(7H)-one] | 25 µM (≈ 13.3 µg/mL) |  |  | 3 nM | 88 µL/min/mg | 34.9% | 34.9% |  | 35% | > 2000 nM | > 2000 nM | 1.7 nM and 2.4 nM | 2.7 | 3.1 nM | 2.46 nM |  | 
C[C@H]1CCCN(c2ncc(Cl)c(Nc3ccc4c(c3)c3c(c(=O)n4C)OCC(F)(F)[C@H](C4CC4)N3)n2)C1 [15a, (S)-10-((5-chloro-2-((S)-3-methylpiperidin-1-yl)pyrimidin-4-yl)amino)-2-cyclopropyl-3,3-difluoro-7-methyl-1,2,3,4-tetrahydro-[1,4]oxazepino[2,3-c]quinolin-6(7H)-one] | 0 µM | 4.9 | 7.4377 | 36.5 nM | 568 µL/min/mg | 88.4% | 85.5% | degraders of BCL6 | 86% | 16 nM and 1.7 nM and 9.3 nM | 6.3 nM | 48 nM and 29.5 nM and 34.4 nM |  |  |  | 8.1987 | 83.3% and 85.0%
Cn1c(=O)c2c(c3cc(Nc4nc(N5CCC(F)(F)[C@@H](O)C5)ncc4Cl)ccc31)N[C@@H](C1CC1)C(F)(F)CO2 (single isomer, unassigned) [8a] | 11 µM (≈ 6.26 µg/mL) | 3 | 8.4571 | 3.5 nM | 53 µL/min/mg | 60.5% | 59.6% | potently degrading isomer | 60% | 4.3 nM and 11.6 nM and 7.1 nM | 7.1 nM | 3.2 nM and 3.3 nM and 4 nM |  |  |  | 8.1499 | 50.7% and 67.5%
